“And” between values parts separate entries of the source, which are not always exact repeats. Equal entries are not always repeated.
Settings: 283.15 K, Liquid, Vibrating tube method

CCCCCC(=O)OCC(COC(=O)CCCCC)(COC(=O)CCCCC)COC(=O)CCCCC [pentaerythritol tetrahexanoate]
Settings	mass density
15225 kPa	1012.8 kg/m3
15241 kPa	1012.9 kg/m3
15260 kPa	1012.8 kg/m3
15276 kPa	1012.7 kg/m3
15292 kPa	1012.8 kg/m3
15311 kPa	1012.8 kg/m3
15327 kPa	1013 kg/m3
15343 kPa	1012.8 kg/m3
15363 kPa	1012.9 kg/m3
15379 kPa	1013.1 kg/m3
15395 kPa	1012.9 kg/m3
15412 kPa	1013 kg/m3
15432 kPa	1012.9 kg/m3
15448 kPa	1012.9 kg/m3
15467 kPa	1013.1 kg/m3
15483 kPa	1013.1 kg/m3
15500 kPa	1013.1 kg/m3
15519 kPa	1012.8 kg/m3
15536 kPa	1013.1 kg/m3
15552 kPa	1012.9 kg/m3
15572 kPa	1013 kg/m3
15589 kPa	1013 kg/m3
15606 kPa	1013 kg/m3
15626 kPa	1013 kg/m3
15642 kPa	1013.1 kg/m3
15659 kPa	1012.9 kg/m3
15679 kPa	1013 kg/m3
15696 kPa	1013.1 kg/m3
15713 kPa	1013.1 kg/m3
15733 kPa	1013 kg/m3
15750 kPa	1013.1 kg/m3
15767 kPa	1013.1 kg/m3
15788 kPa	1013 kg/m3
15805 kPa	1013.2 kg/m3
15823 kPa	1013.2 kg/m3
15841 kPa	1013.2 kg/m3
15861 kPa	1013.1 kg/m3
15878 kPa	1013.2 kg/m3
16066 kPa	1013.4 kg/m3
16083 kPa	1013.3 kg/m3
16104 kPa	1013.4 kg/m3
16122 kPa	1013.3 kg/m3
16139 kPa	1013.3 kg/m3
16157 kPa	1013.3 kg/m3
16178 kPa	1013.2 kg/m3
16195 kPa	1013.3 kg/m3
16214 kPa	1013.4 kg/m3
16230 kPa	1013.4 kg/m3
16247 kPa	1013.2 kg/m3
16266 kPa	1013.4 kg/m3
16282 kPa	1013.4 kg/m3
16299 kPa	1013.5 kg/m3
16315 kPa	1013.4 kg/m3
16334 kPa	1013.3 kg/m3
16351 kPa	1013.4 kg/m3
16368 kPa	1013.6 kg/m3
16388 kPa	1013.5 kg/m3
16404 kPa	1013.4 kg/m3
16421 kPa	1013.5 kg/m3
16441 kPa	1013.4 kg/m3
16457 kPa	1013.5 kg/m3
16474 kPa	1013.5 kg/m3
16491 kPa	1013.6 kg/m3
16511 kPa	1013.5 kg/m3
16528 kPa	1013.6 kg/m3
16545 kPa	1013.6 kg/m3
16565 kPa	1013.7 kg/m3
16582 kPa	1013.5 kg/m3
16598 kPa	1013.5 kg/m3
16619 kPa	1013.6 kg/m3
16636 kPa	1013.6 kg/m3
16653 kPa	1013.6 kg/m3
16673 kPa	1013.6 kg/m3
16690 kPa	1013.7 kg/m3
16707 kPa	1013.6 kg/m3
16727 kPa	1013.6 kg/m3
16745 kPa	1013.6 kg/m3
16762 kPa	1013.6 kg/m3
16782 kPa	1013.6 kg/m3
16800 kPa	1013.6 kg/m3
16817 kPa	1013.7 kg/m3
16837 kPa	1013.7 kg/m3
16854 kPa	1013.6 kg/m3
16872 kPa	1013.7 kg/m3
16893 kPa	1013.7 kg/m3
16911 kPa	1013.8 kg/m3
16929 kPa	1013.8 kg/m3
16951 kPa	1013.7 kg/m3
16969 kPa	1013.8 kg/m3
16988 kPa	1013.8 kg/m3
17008 kPa	1013.8 kg/m3
17031 kPa	1013.9 kg/m3
17050 kPa	1013.8 kg/m3
17097 kPa	1013.8 kg/m3
17099 kPa	1013.9 kg/m3
17100 kPa	1013.9 kg/m3
17101 kPa	1013.7 kg/m3
17113 kPa	1013.8 kg/m3
17138 kPa	1013.8 kg/m3
17147 kPa	1013.8 kg/m3
17148 kPa	1013.8 kg/m3 and 1014 kg/m3
17156 kPa	1013.8 kg/m3
17174 kPa	1013.8 kg/m3
17193 kPa	1013.9 kg/m3
17211 kPa	1013.9 kg/m3
17233 kPa	1013.8 kg/m3
17252 kPa	1013.9 kg/m3
17270 kPa	1014 kg/m3
17291 kPa	1013.9 kg/m3
17309 kPa	1013.8 kg/m3
17331 kPa	1014 kg/m3
17350 kPa	1013.9 kg/m3
17373 kPa	1013.9 kg/m3
17392 kPa	1014 kg/m3
17411 kPa	1014.1 kg/m3
17430 kPa	1014 kg/m3
17453 kPa	1014.1 kg/m3
17472 kPa	1014 kg/m3
17491 kPa	1014.1 kg/m3
17514 kPa	1014.1 kg/m3
17534 kPa	1014.1 kg/m3
17555 kPa	1014 kg/m3
17574 kPa	1014.1 kg/m3
17593 kPa	1014.1 kg/m3
17616 kPa	1014.1 kg/m3
17635 kPa	1014.1 kg/m3
17656 kPa	1014 kg/m3
17672 kPa	1014.2 kg/m3
17688 kPa	1014.2 kg/m3
17708 kPa	1014 kg/m3
17723 kPa	1014.2 kg/m3
17739 kPa	1014.3 kg/m3
17758 kPa	1014.2 kg/m3
17775 kPa	1014.2 kg/m3
17791 kPa	1014.2 kg/m3
17807 kPa	1014.3 kg/m3
17827 kPa	1014.2 kg/m3
17843 kPa	1014.2 kg/m3
17861 kPa	1014.3 kg/m3
17877 kPa	1014.2 kg/m3
17892 kPa	1014.2 kg/m3
17907 kPa	1014.3 kg/m3
17925 kPa	1014.3 kg/m3
17939 kPa	1014.3 kg/m3
